The results in this text go back to patent publication US20180209962A1, “SCREENING METHOD USING INDUCED NEURONS” (KYOTO UNIVERSITY, priority 2014, published 2018).

Common to all, as to assay type: cell-based
The test system of test [1] is human normal iNs. The experiment in a line: Spontaneous firing rate using a MEA system. As to conditions: final concentration 1 μg/ml. The procedure: iPSCs for neural differentiation were inoculated to a culture dish for the exclusive use of MEA coated with poly-L-lysine and Matrigel, and induced to differentiate into neurons according to the [Approach 2]. At day 8 (mouse iNs) or day 12 (human iNs), extracellular electrical recordings were measured using a multielectrode array system (MEA60, Multi Channel Systems MCS GmbH). Data was obtained using MC_Rack software (extracellular electrical recordings). Offline Sorter ver. 3 (Plexon Inc.) was used in spike analysis. The spikes were sorted and then analyzed using Neuroexplorer software (Nex Technologies, LLC).
A culture supernatant of human tauopathy iNs or human normal iNs of days 12 to 14 was added to human normal iNs of day 20, and a spontaneous firing rate was measured using the MEA system of the [Approach 6]. […] By contrast, in the human normal iNs supplemented with the culture supernatant of the human normal iNs, no increase in spontaneous firing rate occurred substantially (FIGS. 12E and 12F).
The P301S tau monomer or the P301S tau oligomer was added (final concentration: 1 μg/ml) to the culture system of human normal iNs, and a spontaneous firing rate was measured using a MEA system ([Approach 6]). […]

Test [2] relates to human normal iNs. The experiment in a line: Cell survival rate of human normal iNs after addition of P301S tau monomer or oligomer. As to conditions: for cell survival rate: two days later. The procedure: FIGS. 13D and 13F show results of adding the tau monomer or the tau oligomer of FIG. 13A to a medium of human normal iNs of day 20 and measuring a spontaneous firing rate using a MEA system (FIG. 13D). The arrows represent the timing at which the tau monomer or the tau oligomer was added. FIG. 13E is a graph indicating the ratio of spike number between before and after the addition.
P301S mutant human tau produced as a recombinant protein was oligomerized by incubation in the presence of heparin. Specifically, 0.5 mg/ml tau protein was incubated at 37° C. for 16 hours in a 10 mM HEPES buffer (pH 7.4) containing 10 μM heparin (Sigma-Aldrich Co. LLC) and 100 mM NaCl (Sahara N. and Takashima A, EMBO J., 26: 5143-52, 2007). Then, the solution was treated at 70° C. for 15 minutes and then subjected to SDS-PAGE and silver staining. As is evident, the tau before the incubation in the presence of the heparin was mostly monomeric and dimeric, whereas the tau after the incubation included a large number of trimeric or larger associates (i.e., tau oligomers). Hereinafter, the tau before the incubation in the presence of the heparin is referred to as a “P301S tau monomer”, and the tau after the incubation is referred to as a “P301S tau oligomer”.
The P301S tau monomer or the P301S tau oligomer was added to the culture system of human normal iNs, followed by cell survival rate analysis two days later.

The test system of test [3] is mouse tauopathy iNs and mouse normal iNs. The experiment in a line: Action potential / excitatory postsynaptic current of iNs in the presence of glutamate receptor antagonists. As to conditions: for generation of excitatory postsynaptic current: mouse normal iNs, CNQX and AP-5 administered together; for generation of action potential: mouse tauopathy iNs and mouse normal iNs, AP-5 and CNQX present together. The text has this:
FIGS. 1A and 1B show results of confirming, by immunostaining (FIG. 1A) or RT-PCR (FIG. 1B), that iPSCs prepared from a transgenic mouse harboring a P301S mutant human MAPT gene (tauopathy mouse), or its non-transgenic litter (normal mouse) express an undifferentiation marker (Esg1, Eras, Nanog, or SSEA1). In FIG. 1B, tauopathy mouse MEFs (MEF) were used as a negative control, and mouse embryonic stem cells (ESCs) were used as a positive control. […] The inserted drawings show enlarged diagrams of neurites.
Accordingly, these iNs were confirmed to be glutamatergic neurons.

The subject of test [4] is mouse tauopathy iNs. Put plainly: Dot blot of tau oligomer in culture supernatant and cell extracts of mouse tauopathy iNs. The following applies: added at day 5, 48 hours later, final concentration 25 μM. The procedure:
(§1) FIG. 7 FIGS. 7A and 7B show results of adding AP-5 (final concentration: 25 μM) or CNQX (final concentration: 25 μM) to mouse tauopathy iNs or mouse normal iNs of day 5, preparing a culture supernatant and cell extracts 48 hours later, and analyzing the amounts of tau and a tau oligomer contained in the culture supernatant and the cell extracts by dot blot (FIG. 7A), and the results of quantifying their signals (FIG. 7B). In FIGS. 7C and 7D, AP-5 or CNQX was added to mouse tauopathy iNs of day 7, and a survival rate at day 10 (=the number of live neurons at day 10/the number of live neurons at day 7)×100) was indicated in a graph.
Cells were recovered from the culture system of iNs, suspended in TBS (Tris buffered saline) containing a protease inhibitor and a phosphatase inhibitor, and then ultrasonicated to homogenize the cells. The cell homogenates were centrifuged (13,000×g, 15 min), and the supernatant was recovered as cell extracts. The cell extracts from the iNs of each type were blotted at 1.2 μg protein/spot onto a nitrocellulose membrane (pore size: 0.45 μm, GE Healthcare Japan Corp.).
Also, a medium was recovered from the cell culture system and subjected to low-speed centrifugation (1,000 rpm, 3 min) to precipitate cellular debris. The obtained supernatant was recovered as a culture supernatant. A 500 μl aliquot of each culture supernatant was transferred to a tube with an ultrafiltration filter (Vivaspin, molecular weight cutoff: 10 kD, GE Healthcare Japan Corp.) and concentrated to 50 μl. 2 μl of each concentrated sample was blotted onto the nitrocellulose membrane.
The nitrocellulose membrane obtained by the method was treated with various tau antibodies according to a standard method, followed by detection (Western Lightning Plus-ECL, PerkinElmer, Inc.) and signal quantification (ImageQuant LAS4000, GE Healthcare Japan Corp.). Tau 12, Tau 5, and TOC1 antibodies were used a human tau-specific antibody, an antibody recognizing human tau and mouse tau, and a tau oligomer-specific antibody, respectively. In Examples of the present application, the TOC1 antibody (Non-Patent Document 13) used was provided by Dr. Nicholas Kanaan from Department of Translational Science and Molecular Medicine, College of Human Medicine, Michigan State University (USA).
(§2) AP-5 or CNQX was added to the culture system of mouse tauopathy iNs of day 5. 48 hours later, a culture supernatant and cell extracts were prepared therefrom, and the amount of a tau oligomer, the amount of human tau, and the total amount of tau were analyzed by dot blot (FIGS. 7A and 7B). Also, AP-5 or CNQX was added to the culture system of mouse tauopathy iNs of day 7. Three days later, a cell survival rate was calculated (FIGS. 7C and 7D).

Test [5] deals with mouse tauopathy iNs. Put plainly: Cell survival rate of mouse tauopathy iNs. As to conditions: added at day 7, survival at day 10. The procedure:
as §1, §2

In test [6] the test system is human tauopathy iNs. Put plainly: Cell survival rate of human tauopathy iNs. As to conditions: added at day 16, survival at day 21. The text has this:
FIGS. 10A and 10B show results of measuring change in intracellular calcium concentration between before and after electric stimulation by use of a calcium imaging method in human tauopathy iNs or human normal iNs of day 12 (FIG. 10A, n=6). The arrows shown in the abscissa represent time points at which the cells were given electric stimulation. The ordinate (ΔF/F) depicts change in the fluorescence intensity of a calcium indicator (Fluo-8/AM) after the stimulation with respect to its baseline fluorescence intensity. FIG. 10B is a graph on which the largest value of the ΔF/F was plotted. […] The upper left panel “pre” depicts the human tauopathy iNs of day 16 before the addition of the reagent.
Next, AP-5 or CNQX was added to the culture system of human tauopathy iNs of day 16, and a cell survival rate at day 21 was calculated. The treatment with any of these agents tended to elevate the cell survival rate.

Test [7] deals with human tauopathy iNs. The experiment in a line: Sucrose density-gradient fractionation, localization of tau oligomer and lipid raft. The following applies: tauopathy iNs treated with MbCD, then sucrose density-gradient fractionation, Western blot. The text has this: FIGS. 11A and 11B show results of preparing a culture supernatant and cell extracts from human tauopathy iNs or human normal iNs of day 14 and analyzing the amounts of human tau and a tau oligomer contained in the culture supernatant or the cell extracts by use of dot blot (FIG. 11A), and graphs on which their signals were quantified (FIG. 11B).
Lipid raft was biochemically isolated from human tauopathy iNs or human normal iNs and analyzed for its colocalization with a tau oligomer. Specifically, iNs were homogenized using a 29-gauge needle in a buffer containing 1% Lubrol and a protease inhibitor, and the cell homogenates were adjusted to a sucrose concentration of 40%. Then, a 0.7 ml aliquot thereof was fractionated by the sucrose density-gradient centrifugation method. The sucrose density gradient used was steps of 30% (1.4 ml), 27.5% (0.7 ml), 24% (1.4 ml), and 3% […] (5-ml tube), and the centrifugation conditions involved 50,000 rpm, 4° C., and 16 hours using Optima-MAX XP1 (Beckman Coulter, Inc.). After the centrifugation, a 0.7 ml aliquot was recovered from the upper layer to obtain 7 fractions (F1 to F7).
The lipid raft (GM1 ganglioside) was recovered into F2 and F3 of the human normal iNs and contained in F2 and F3 as well as in a small amount in F4 of human tauopathy iNs. The tau oligomer in the tauopathy iNs was contained mainly in F3 and also contained in F2 and F4. […]
(In general: A western blot detects proteins with antibodies after separation by electrophoresis.)

“P301S tau oligomer: recombinant P301S mutant human tau after incubation in the presence of heparin; trimeric or larger associates”: in the test on human normal iNs [1], the spontaneous firing rate entry is “approximately 290 % of that before the addition”. Further, the cell survival rate result in the test on human normal iNs [2] (0.1 μg/ml) and in the test on human normal iNs [2] (1 μg/ml) was “significantly decreased” throughout. Also, in the test with human normal iNs [2] (100 ng/ml), the “induction of cell death” value is on record as “tended to induce cell death, albeit not significant”.

With `N#Cc1cc2c(cc1[N+](=O)[O-])=NC(=O)C(=O)N=2` [CNQX, 6-cyano-7-nitroquinoxaline-2,3-dione], in test [3], the “generation of excitatory postsynaptic current” value is “suppressed” and the “generation of action potential” value is recorded as “did not generate action potential”. In the test with mouse tauopathy iNs [4], the “amount of a tau oligomer contained in the cell extracts” value is “approximately 70 % of the negative control” and the “amount of a tau oligomer contained in the culture supernatant” value is “approximately 50 % of the negative control”. In addition, in the test on mouse tauopathy iNs [5], the cell survival rate entry was “approximately 2 times the negative control”. In the test on human tauopathy iNs [6] (25 μM), the cell survival rate entry was “significantly elevated”.

As for `N[C@H](CCCP(=O)(O)O)C(=O)O` [AP-5, D-(−)-2-amino-5-phosphononpentanoic acid], the “generation of excitatory postsynaptic current” value in test [3] was “suppressed”. For the same compound, the “generation of action potential” value in test [3] was “did not generate action potential”. In the test with mouse tauopathy iNs [4], the “amount of a tau oligomer contained in the cell extracts” value is given as “no significant change”. The “amount of a tau oligomer contained in the culture supernatant” value in the test with mouse tauopathy iNs [4] was “approximately 50 % of the negative control”. For the same compound, the cell survival rate entry in the test on mouse tauopathy iNs [5] is listed as “approximately 2 times the negative control”; in the test with human tauopathy iNs [6] (12.5 μM), “significantly elevated”; in the test on human tauopathy iNs [6] (25 μM), “significantly elevated”.

As for “P301S tau monomer: recombinant P301S mutant human tau before the incubation with heparin, mostly monomeric and dimeric”, the spontaneous firing rate entry in the test on human normal iNs [1] is “approximately 120 % of that before the addition”. Also, the cell survival rate result with human normal iNs [2] (1 μg/ml) is “not changed”.

For the compound Methyl-β-cyclodextrin [MbCD], the “recovery of tau oligomer into lipid raft fractions” value with human tauopathy iNs [7] is given as “not recovered into F2 to F4”.
